Here are results for one molecule from patent publication US4151278A, “Process for the preparation of an extract of Teucrium marum used in particular in therapy” (Institut de Recherches Chimiques et Biologiques Appliquees, priority 1976, dated 1979).

The test system of the assay is spontaneous respiration in male guinea pigs. In words: Analeptic respiratory activity after morphine depression. Type of assay: in vivo. The note with it: 20 mg/kg intravenously; reference; before morphine 58, 20 minutes after morphine 29. How it is done:
The spontaneous respiration in male guinea pigs, weighing 400-600 g, which have been anaesthetized, is recorded by means of a tracheal probe connected to an electronic recorder.
In a first stage, the respiration is depressed by an intravenous injection of 10 mg/kg of morphine. In a second stage, 20 minutes after the morphine, the product to be studied is injected intravenously.
The respiratory rhythm is recorded before the injection of morphine, and before and 1 minute after the injection of the product to be studied.

For the molecule `Cn1c(=O)c2[nH]cnc2n(C)c1=O` [theophylline], the “respiratory rhythm 1 minute after administration of the product” value is reported as 47 pulsations/minute.
